Measured values: patent publication US12616700B2, “Therapeutic regimen” (Novartis AG, priority 2017, dated 2026)
Like-named read-outs stand apart in the source and are kept apart here. Each block holds one compound with its values, some of them ahead of it.

Experiments:
[1] = tested on: P. vivax or P. falciparum; conditions: cited from earlier work
liver hypnozoites = conditions: cited from earlier work
P. falciparum = conditions: in vitro; cited from earlier work
[2] = tested on: drug-sensitive and a broad panel of drug resistant malaria strains; conditions: cited from earlier work
P. vivax = conditions: in vitro; cited from earlier work
Plasmodium = conditions: causal prophylactic protection in animal infection models; cited from earlier work
[3] = Dog study of lumefantrine-SDF and KAF156 alone and co-dosed (Example 6); assay type: in vivo; conditions: for Cmax / AUC(0-inf) / AUC(0-t) / half-life / Tmax: po, 100 mg; for AUC(0-inf): read-out: AUCinf, Mean; for AUC(0-t): read-out: AUClast, Mean; for half-life: read-out: T½, Mean (converted)
Experimental: The study design is described in the table below. To stimulate gastric secretion, each animal (dog) received a single 6-μg/kg intramuscular injection of pentagastrin approximatively 60 minutes prior to test article administration. Washout between each treatment was approximatively 7-8 days. [table]

[4] = cited from earlier work
[5] = assay type: in vitro ADME
Experimental: Lumefantrine concentration was determined by a validated Liquid chromatography-Mass spectrometry (LC-MS/MS) method with a Lower Limit of Quantification (LLOQ) of 50 ng/mL. Briefly, the bioanalytical method consisted of protein precipitation followed by solid phase extraction of human plasma samples and analysis of diluted samples by LC-MS/MS in Multiple Reaction Monitoring (MRM) positive mode using Electrospray Ionization (ESI) as the ionization technique. The lower and upper limits of quantification for linear range were 50.0 ng/mL and 20000 ng/mL respectively using […] of human plasma. Lumefantrine in human plasma is stable for 44 hours at room temperature; 9 months at ≤−70° C.; 3 freeze/thaw cycles at ≤−70° C. The extract is stable for 100 hours in an autosampler at 8° C. The stability data could cover the period from sampling to analysis of all study samples. For eight points calibration concentrations (50, 100, 200, 500, 2000, 5000, 16000 and 20000 ng/mL) bias was within the range of 15.0% at all concentrations except for LLOQ (50 ng/mL) for which it was within the range of 20.0%. For quality control samples (150 ng/mL, 2500 ng/mL and 15000 ng/mL) bias was within the range of 15.0% for at least ⅔ of the individual values.

[6] = P. falciparum malaria, multiple-dose cohort
[7] = Dog 3 (emesis after dosing in Phase 5)
[8] = dog, in vivo, Phase 2 (Combo), dog
[9] = dog, in vivo, Phase 5 (Mono), dog

AUCinf Ratio (Phase 2:Phase 5) ([3]; Dog 1): 2.6 | AUClast Ratio (Phase 2:Phase 5) ([3]; Dog 1): 2.7 | Cmax Ratio (Phase 2:Phase 5) ([3]; Dog 1): 2.6 | AUCinf Ratio (Phase 2:Phase 5) ([3]; Dog 2): 2.8 | AUClast Ratio (Phase 2:Phase 5) ([3]; Dog 2): 2.9 | Cmax Ratio (Phase 2:Phase 5) ([3]; Dog 2): 2.5 | AUCinf Ratio (Phase 2:Phase 5) ([3]; Mean): 3.6 | AUClast Ratio (Phase 2:Phase 5) ([3]; Mean): 3.6 | Cmax Ratio (Phase 2:Phase 5) ([3]; Mean): 2.8 | Cmax ([3]; dog, in vivo, Phase 2 (Combo)): 1200 ng/mL | AUC(0-inf) [3, 8]: 45400 ng·h/mL | AUC(0-t) [3, 8]: 36700 ng·h/mL | half-life ([3]; dog, in vivo, Phase 2 (Combo), with Lumefantrine-SDF sachet, dog): 31 h | Tmax ([3]; dog, in vivo, Phase 2 (Combo), Tmax 1, 1, 8 hr in 3 dogs): 3.3 h | Cmax ([3]; dog, in vivo, Phase 5 (Mono)): 451 ng/mL | Tmax ([3]; dog, in vivo, Phase 5 (Mono)): 1 h | AUC(0-inf) [3, 9]: 14400 ng·h/mL | AUC(0-t) [3, 9]: 11600 ng·h/mL | half-life [3, 9]: 33.2 h
Structure (SMILES): CC1(C)c2nc(-c3ccc(F)cc3)c(Nc3ccc(F)cc3)n2CCN1C(=O)CN [KAF156, 2-amino-1-(2-(4-fluorophenyl)-3-(4-fluorophenylamino)-8,8-dimethyl-5,6-dihydroimidazo[1,2-a]pyrazin-7(8H)-yl)ethanone]
serious adverse events ([1]; 400 mg/day for 3 days or single 800 mg): No serious adverse event was reported | patients who reported nausea [1, 6]: 1 patient | patients who vomited [1, 6]: 1 patient | activity against vivax and falciparum malaria, including artemisinin-resistant parasites ([1]; malaria patients): has activity | half-life ([1]; malaria patients): about 50 hours | patients who vomited ([1]; single 800-mg dose, besides one withdrawn for repeated vomiting): Five | patients who reported nausea ([1]; single 800-mg dose): Four | activity against liver hypnozoites (liver hypnozoites): has not demonstrated activity | EC50, erythrocytic replication life cycle stages (blood stages) (P. falciparum): low nanomolar | potency against drug-sensitive versus drug resistant malaria strains [2]: equally potent | EC50, erythrocytic replication life cycle stages (blood stages) (P. vivax): low nanomolar | activity in liver stage models of Plasmodium infection (Plasmodium): has shown activity | AUCinf Ratio (Phase 2:Phase 5) [3, 7]: 5.3 | AUClast Ratio (Phase 2:Phase 5) [3, 7]: 5.2 | Cmax Ratio (Phase 2:Phase 5) [3, 7]: 3.3

stability of the extract ([5]; human, 100 hours): 100 h | stability in human plasma ([5]; plasma, 44 hours): 44 h | increase of lumefantrine exposure when administered together with KAF156 ([3]; dog, in vivo): around 1.5 fold
Structure (SMILES): CCCCN(CCCC)CC(O)c1cc(Cl)cc2c1-c1ccc(Cl)cc1/C2=C/c1ccc(Cl)cc1 (stereo not drawn) [Lumefantrine, lumefantrine]
increase of bioavailability by food ([4]; in vivo): up to 16 fold

Structure (SMILES): CO[C@H]1O[C@@H]2O[C@@]3(C)CC[C@H]4[C@H](C)CC[C@@H]([C@H]1C)[C@@]24OO3 [artemether]
increase of bioavailability by food ([4]; Coartem administered with high fat food): up to 3 fold
